Test results as given in the SangsterLogP compilation.

Going from Oc1cc(Cl)c(Cl)c(Cl)c1 to Nc1cc(Cl)c(Cl)c(Cl)c1, the logP falls from 3.75 to 3.32.

Compared with Cc1ccc(C)c(C)c1C, Cc1cc(C)c(C)c(C)c1C is higher in logP: 4.11 for the first, 4.56 for the second.

Compared with Cc1cc(C)c(C)c(C)c1, Cc1cc(C)cc(C)c1 is lower in logP: 4.17 for the first, 3.84 for the second.

Compared with Oc1cc(Cl)cc(Cl)c1, Oc1ccc(Cl)c(Cl)c1 is lower in logP: 3.26 for the first, 3.05 for the second.

First: Nc1ccc(Cl)c(Cl)c1Cl
Second: Nc1c(Cl)cccc1Cl
The logP of the first is higher: 3.33 for the first, 2.71 for the second.

First: ClC1=C(Cl)C2(Cl)C3C4CC(C5OC45)C3C1(Cl)C2(Cl)Cl (configuration not stated)
Second: Nc1c(Cl)c(Cl)c(Cl)c(Cl)c1Cl
The logP of the first is higher: 5.11 for the first, 4.59 for the second.
